This passage reports IC50 and GI50 results from patent US11008337B2, “Chiral diaryl macrocycles as modulators of protein kinases” (Turning Point Therapeutics, Inc., priority 2015, dated 2021).

Type in all cases: cell-based
The subject of experiment [1] is Colorectal cell lines KM 12 (harboring endogenous TPM3-TRKA fusion gene). In words: Cell proliferation assay, KM12 cells (CellTiter-Glo). The note with it: Homo sapiens, 72 hours incubation. The protocol: (§1) Cell Proliferation Assays.
Colorectal cell lines KM 12 (harboring endogenous TPM3-TRKA fusion gene) cells were cultured in DMEM medium, supplemented with 10% fetal bovine serum and 100 U/mL of penicillin/streptomycin. 5000 cells were seeded in 384 well white plate for 24 hours before compounds treatment. Cell proliferation was measured using CellTiter-Glo luciferase-based ATP detection assay (Promega) following the manufactures's protocol after 72 hours incubation. IC50 determinations were performed using GraphPad Prism software (GraphPad, Inc., San Diego, Calif.). […] 5000 cells were seeded in 384 well white plate for 24 hours before compounds treatment. Cell proliferation was measured using CellTiter-Glo luciferase-based ATP detection assay (Promega) following the manufactures's protocol after 72 hours incubation. IC50 determinations were performed using GraphPad Prism software (GraphPad, Inc., San Diego, Calif.).

The test system of experiment [2] is essential thrombocythemia cell line SET-2 cells (harboring endogenous JAK2 point mutation). The experiment in a line: Cell proliferation assay, SET-2 cells (CellTiter-Glo). The settings on record: Homo sapiens, 72 hours incubation, read-out: Cell Proliferation IC50 SET2. The protocol: as §1
Colorectal cell lines KM 12 (harboring endogenous TPM3-TRKA fusion gene) cells were cultured in DMEM medium, supplemented with 10% fetal bovine serum and 100 U/mL of penicillin/streptomycin. 5000 cells were seeded in 384 well white plate for 24 hours before compounds treatment. Cell proliferation was measured using CellTiter-Glo luciferase-based ATP detection assay (Promega) following the manufactures's protocol after 72 hours incubation. IC50 determinations were performed using GraphPad Prism software (GraphPad, Inc., San Diego, Calif.). Alternatively, essential thrombocythemia cell line SET-2 cells (harboring endogenous JAK2 […] point mutation) or T cell lymphoma Karpas-299 cell line (harboring endogenous NPM-ALK fusion gene) were cultured in RPMI medium, supplemented with 10% fetal bovine serum and 100 U/mL of penicillin/streptomycin. 5000 cells were seeded in 384 well white plate for 24 hours before compounds treatment. Cell proliferation was measured using CellTiter-Glo luciferase-based ATP detection assay (Promega) following the manufactures's protocol after 72 hours incubation. IC50 determinations were performed using GraphPad Prism software (GraphPad, Inc., San Diego, Calif.).

A further experiment concerns the target T1, EML4-ALK Ba/F3 (Homo sapiens, UniProt Q9UM73).
T1 construct: fused on or other part: Q9HC35 (Echinoderm microtubule-associated protein-like 4)
The experiment in a line: Cell proliferation assay, EML4-ALK Ba/F3 stable cell line (CellTiter-Glo). The settings on record: Ba/F3-EML4-ALK wild type (variant 1) cells, 72 hours compound incubation; read-out: Cell Proliferation IC50 EML4-ALK Ba/F3. The source says:
Creation of CD74-ROS1 and EML4-ALK Ba/F3 Stable Cell Lines and Cell Proliferation Assays.
The CD74-ROS1 wild-type gene and EML4-ALK wild-type gene (variant 1) were synthesized at GenScript and cloned into pCDH-CMV-MCS-EF1-Puro plasmid (System Biosciences, Inc). Ba/F3-CD74-ROS1 and Ba/F3-EML4-ALK wild type cell lines were generated by infecting Ba/F3 cells with lentivirus containing CD74-ROS1 wide-type and EML4-ALK wild type. Stable cell lines were selected by puromycin treatment, followed by IL-3 withdrawal. 3000 cells were seeded in 384 well white plate overnight before compound treatment. Cell proliferation was measured using CellTiter-Glo luciferase-based ATP detection assay (Promega) following the manufactures's protocol after 72 hours of various concentration of compound incubation. IC50 determinations were performed using GraphPad Prism software (GraphPad, Inc., San Diego, Calif.).

T1 sequence (Q9UM73 whole entry, change not shown, the tested form may be a part): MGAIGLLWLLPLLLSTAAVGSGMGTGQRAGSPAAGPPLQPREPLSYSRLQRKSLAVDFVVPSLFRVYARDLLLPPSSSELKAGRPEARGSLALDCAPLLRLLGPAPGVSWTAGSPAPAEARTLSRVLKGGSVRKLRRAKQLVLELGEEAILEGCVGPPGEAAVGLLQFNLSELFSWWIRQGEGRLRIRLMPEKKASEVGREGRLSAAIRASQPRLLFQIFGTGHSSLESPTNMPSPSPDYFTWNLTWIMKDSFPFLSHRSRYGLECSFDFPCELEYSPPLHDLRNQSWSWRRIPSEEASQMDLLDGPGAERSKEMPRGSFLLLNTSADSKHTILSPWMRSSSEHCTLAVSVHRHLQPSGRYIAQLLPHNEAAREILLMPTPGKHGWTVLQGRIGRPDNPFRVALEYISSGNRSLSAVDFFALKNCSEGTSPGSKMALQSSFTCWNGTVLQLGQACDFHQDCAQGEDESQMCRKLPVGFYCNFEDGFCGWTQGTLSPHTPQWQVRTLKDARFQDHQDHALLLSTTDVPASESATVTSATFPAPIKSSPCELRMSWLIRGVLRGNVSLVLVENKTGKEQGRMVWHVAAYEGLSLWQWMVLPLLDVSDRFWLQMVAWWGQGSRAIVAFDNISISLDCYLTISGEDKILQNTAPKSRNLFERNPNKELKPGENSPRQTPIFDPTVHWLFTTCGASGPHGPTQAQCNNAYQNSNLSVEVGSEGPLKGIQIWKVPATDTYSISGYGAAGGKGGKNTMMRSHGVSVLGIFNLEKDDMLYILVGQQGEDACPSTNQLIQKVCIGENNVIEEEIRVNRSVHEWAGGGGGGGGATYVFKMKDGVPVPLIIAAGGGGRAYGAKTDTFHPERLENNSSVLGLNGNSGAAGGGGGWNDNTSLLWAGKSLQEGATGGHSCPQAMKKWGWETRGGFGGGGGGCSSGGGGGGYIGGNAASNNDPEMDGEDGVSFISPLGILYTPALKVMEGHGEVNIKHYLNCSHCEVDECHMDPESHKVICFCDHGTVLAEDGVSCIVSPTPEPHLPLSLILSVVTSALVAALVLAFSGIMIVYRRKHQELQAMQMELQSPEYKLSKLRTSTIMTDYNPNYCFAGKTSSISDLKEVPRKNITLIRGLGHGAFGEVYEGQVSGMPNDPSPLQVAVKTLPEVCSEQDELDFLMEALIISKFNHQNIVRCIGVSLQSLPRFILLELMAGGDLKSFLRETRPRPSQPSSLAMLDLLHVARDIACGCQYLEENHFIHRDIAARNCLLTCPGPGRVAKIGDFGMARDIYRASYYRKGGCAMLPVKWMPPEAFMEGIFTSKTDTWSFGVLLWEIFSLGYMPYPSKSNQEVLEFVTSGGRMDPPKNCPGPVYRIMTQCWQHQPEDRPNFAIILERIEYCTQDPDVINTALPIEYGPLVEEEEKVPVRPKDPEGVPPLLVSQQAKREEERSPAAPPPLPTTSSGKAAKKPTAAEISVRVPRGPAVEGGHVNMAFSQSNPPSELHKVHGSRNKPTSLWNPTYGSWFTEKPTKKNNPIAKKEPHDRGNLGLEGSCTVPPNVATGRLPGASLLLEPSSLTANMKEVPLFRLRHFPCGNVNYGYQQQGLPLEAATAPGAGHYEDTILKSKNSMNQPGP

Turning to `C[C@H]1Nc2ccn3ncc(c3n2)C(=O)N[C@@H]2CCC[C@H]2Oc2ccc(F)cc21` [Compound 43, (3aR,9R,17aR)-7-fluoro-9-methyl-1,2,3,3a,9,10,17,17a-octahydro-16H-11,13-ethenocyclopenta[b]pyrazolo[4,3-f][1,4,8,10]benzoxatriazacyclotridecin-16-one], the IC50 was determined as 1 nM in experiment [1] and 44 nM in experiment [2]. In addition, on EML4-ALK Ba/F3, the GI50 amounted to 80 nM.
With `C[C@H]1Nc2ccn3ncc(c3n2)C(=O)N[C@H]2CCCC[C@@H]2Oc2ccc(F)cc21` [Compound 44, (4aS,10R,18aS)-8-fluoro-10-methyl-2,3,4,4a,10,11,18,18a-octahydro-12,14-ethenodibenzo[b,l]pyrazolo[4,3-f][1,4,8,10]oxatriazacyclotridecin-17(1H)-one], the IC50 in experiment [1] was determined as 56 nM; in experiment [2], 1800 nM. In addition, the GI50 at EML4-ALK Ba/F3 was 3000 nM.
For `C[C@H]1Nc2ccn3ncc(c3n2)C(=O)N[C@@H]2CCCC[C@H]2Oc2ccc(F)cc21` [Compound 45, (4aR,10R,18aR)-8-fluoro-10-methyl-2,3,4,4a,10,11,18,18a-octahydro-12,14-ethenodibenzo[b,l]pyrazolo[4,3-f][1,4,8,10]oxatriazacyclotridecin-17(1H)-one], in that order: 0.4 nM, 206 nM and above 10000 nM.
For `C[C@H]1Nc2ccn3ncc(c3n2)C(=O)N[C@H]2CCC[C@@H]2Oc2ccc(F)cc21` [Compound 46, (3aS,9R,17aS)-7-fluoro-9-methyl-1,2,3,3a,9,10,17,17a-octahydro-16H-11,13-ethenocyclopenta[b]pyrazolo[4,3-f][1,4,8,10]benzoxatriazacyclotridecin-16-one], in that order: 11 nM, 400 nM and 2000 nM.
Turning to `C[C@H]1Nc2ccn3ncc(c3n2)C(=O)N[C@@H]2CCCC[C@@H]2Oc2ccc(F)cc21` [Compound 47, (4aS,10R,18aR)-8-fluoro-10-methyl-2,3,4,4a,10,11,18,18a-octahydro-12,14-ethenodibenzo[b,l]pyrazolo[4,3-f][1,4,8,10]oxatriazacyclotridecin-17(1H)-one], the IC50 turned out to be 6 nM in experiment [1] and 127 nM in experiment [2]. Also, the GI50 on EML4-ALK Ba/F3 is 504 nM.
Taken in the same sequence, the figures for `C[C@H]1Nc2ccn3ncc(c3n2)C(=O)N[C@H]2CNC[C@H]2Oc2ccc(F)cc21` [Compound 48, (3aR,9R,17aS)-7-fluoro-9-methyl-1,2,3,3a,9,10,17,17a-octahydro-16H-11,13-ethenopyrazolo[4,3-f]pyrrolo[3,4-b][1,4,8,10]benzoxatriazacyclotridecin-16-one] were above 10000 nM, above 10000 nM and 5000 nM.
As to `C[C@H]1Nc2ccn3ncc(c3n2)C(=O)N2CCC[C@H](C2)Oc2ccc(F)cc21` [Compound 52, (9R,15R)-13-fluoro-15-methyl-6,7,8,9,15,16-hexahydro-4H-1,17-etheno-5,9-methanopyrazolo[4,3-h][1,6,10,12]benzoxatriazacyclopentadecin-4-one], the IC50 came out at 8.7 nM in experiment [1] and 768 nM in experiment [2]. For the same compound, the GI50 at EML4-ALK Ba/F3 came out at 1480 nM.
`C[C@H]1Nc2ccn3ncc(c3n2)C(=O)N2CCC[C@@H](C2)Oc2ccc(F)cc21` [Compound 53, (9S,15R)-13-fluoro-15-methyl-6,7,8,9,15,16-hexahydro-4H-1,17-etheno-5,9-methanopyrazolo[4,3-h][1,6,10,12]benzoxatriazacyclopentadecin-4-one]: the values for the IC50 in experiment [1] and in experiment [2] were 37.3 nM and 505 nM, respectively. Moreover, the GI50 at EML4-ALK Ba/F3 stood at 3000 nM.
For `C[C@H]1Nc2ccn3ncc(c3n2)C(=O)N2CCC(CC2)Oc2ccc(F)cc21` [Compound 54], in that order: 464 nM, above 10000 nM and above 10000 nM.
